pIC50: −log10 of the molar value.
How the values were obtained:
[1] = Antiproliferative activity against human HOP62 cells assessed as cell growth at 10 uM measured after 48 hrs by sulforhodamine B assay relative to control; assay type: functional; conditions: HOP-62, 48 h, read-out: Activity
[2] = Antiproliferative activity against human EKVX cells assessed as cell growth at 10 uM measured after 48 hrs by sulforhodamine B assay relative to control; assay type: functional; conditions: read-out: Activity
[3] = Antiproliferative activity against human A549/ATCC cells assessed as cell growth at 10 uM measured after 48 hrs by sulforhodamine B assay relative to control; assay type: functional; conditions: A549, 48 h, read-out: Activity
[4] = Antiproliferative activity against human NCI-H460 cells assessed as reduction in cell viability measured after 72 hrs by MTT assay; assay type: functional, cell-based; conditions: NCI-H460, 72 h; for CC50: read-out: LC50 (the source's name)
[5] = Antiproliferative activity against human NCI-H1975 cells assessed as reduction in cell viability measured after 72 hrs by MTT assay; assay type: functional, cell-based; conditions: NCI-H1975, 72 h
[6] = Antiproliferative activity against human HCC827 cells assessed as reduction in cell viability measured after 72 hrs by MTT assay; assay type: functional, cell-based; conditions: HCC827, 72 h
[7] = Antiproliferative activity against human A549 cells assessed as reduction in cell viability measured after 72 hrs by MTT assay; assay type: functional, cell-based; conditions: A549, 72 h
[8] = Aqueous solubility of the compound; assay type: physicochemical; conditions: buffer
[9] = Antiproliferative activity against human HOP92 cells assessed as cell growth at 10 uM measured after 48 hrs by sulforhodamine B assay relative to control; assay type: functional; conditions: HOP-92, 48 h, read-out: Activity
[10] = Antiproliferative activity against human NCI-H226 cells assessed as cell growth at 10 uM measured after 48 hrs by sulforhodamine B assay relative to control; assay type: functional; conditions: NCI-H226, 48 h, read-out: Activity
[11] = Antiproliferative activity against human NCI-H23 cells assessed as cell growth at 10 uM measured after 48 hrs by sulforhodamine B assay relative to control; assay type: functional; conditions: NCI-H23, 48 h, read-out: Activity
[12] = Antiproliferative activity against human NCI-H322M cells assessed as cell growth at 10 uM measured after 48 hrs by sulforhodamine B assay relative to control; assay type: functional; conditions: read-out: Activity
[13] = Antiproliferative activity against human NCI-H460 cells assessed as cell growth at 10 uM measured after 48 hrs by sulforhodamine B assay relative to control; assay type: functional; conditions: NCI-H460, 48 h, read-out: Activity
[14] = Antiproliferative activity against human NCI-H522 cells assessed as cell growth at 10 uM measured after 48 hrs by sulforhodamine B assay relative to control; assay type: functional; conditions: NCI-H522, 48 h, read-out: Activity
[15] = Growth inhibition of human EKVX cells measured after 48 hrs by sulforhodamine B assay; assay type: functional; conditions: for CC50: read-out: LC50 (the source's name)
[16] = Growth inhibition of human HOP62 cells measured after 48 hrs by sulforhodamine B assay; assay type: functional; conditions: HOP-62, 48 h; for CC50: read-out: LC50 (the source's name)
[17] = Growth inhibition of human HOP92 cells measured after 48 hrs by sulforhodamine B assay; assay type: functional; conditions: HOP-92, 48 h; for CC50: read-out: LC50 (the source's name)
[18] = Growth inhibition of human NCI-H226 cells measured after 48 hrs by sulforhodamine B assay; assay type: functional; conditions: NCI-H226, 48 h; for CC50: read-out: LC50 (the source's name)
[19] = Growth inhibition of human NCI-H23 cells measured after 48 hrs by sulforhodamine B assay; assay type: functional; conditions: NCI-H23, 48 h; for CC50: read-out: LC50 (the source's name)
[20] = Growth inhibition of human NCI-H322M cells measured after 48 hrs by sulforhodamine B assay; assay type: functional; conditions: for CC50: read-out: LC50 (the source's name)
[21] = Growth inhibition of human NCI-H522 cells measured after 48 hrs by sulforhodamine B assay; assay type: functional; conditions: NCI-H522, 48 h

CCCCc1n(Cc2ccc3ccccc3n2)cc[n+]1Cc1ccc2ccccc2n1.[Cl-]
growth at 10 µM [1]: 25.2% | growth at 10 µM [2]: 50.9% | growth at 10 µM [3]: 44.8% | GI50 [4]: 2.17 µM | pIC50 [4]: 5.30 | TGI [4]: 11.6 µM | CC50 [4]: 38.5 µM | pIC50 [5]: > 6.00 | pIC50 [6]: 5.15 | GI50 [7]: 4.76 µM | pIC50 [7]: 5.15 | LC50 [7]: 47.6 µM | TGI [7]: 18.5 µM | solubility [8]: > 80 mM | growth at 10 µM [9]: 4.31% | growth at 10 µM [10]: 26.7% | growth at 10 µM [11]: 4.77% | growth at 10 µM [12]: 41.4% | growth at 10 µM [13]: 16.5% | growth at 10 µM [14]: 10% | GI50 [15]: 4 µM | TGI [15]: 22 µM | CC50 [15]: 72.4 µM | GI50 [16]: 2.8 µM | TGI [16]: 12 µM | CC50 [16]: 39.8 µM | GI50 [17]: 0.339 µM | TGI [17]: 3.36 µM | CC50 [17]: 20.1 µM | GI50 [18]: 2.37 µM | TGI [18]: 13.6 µM | CC50 [18]: 60.3 µM | GI50 [19]: 0.48 µM | TGI [19]: 7.27 µM | CC50 [19]: 43.6 µM | GI50 [20]: 3.57 µM | TGI [20]: 16.3 µM | CC50 [20]: 42 µM | GI50 [21]: 0.435 µM | LC50 (50% lethal concentration) [21]: 32 µM | TGI [21]: 4.19 µM

CCc1n(Cc2ccc3ccccc3n2)cc[n+]1Cc1ccc2ccccc2n1.[Cl-]
growth at 10 µM [1]: 40.9% | growth at 10 µM [2]: 31.9% | growth at 10 µM [3]: 57.4% | GI50 [4]: 0.511 µM | pIC50 [4]: 5.22 | TGI [4]: 11.9 µM | CC50 [4]: 45.7 µM | pIC50 [5]: > 6.00 | pIC50 [6]: 5.05 | GI50 [7]: 5.27 µM | pIC50 [7]: 4.96 | LC50 [7]: > 100 µM | TGI [7]: > 100 µM | solubility [8]: > 80 mM | growth at 10 µM [9]: -11.8% | growth at 10 µM [10]: 48.4% | growth at 10 µM [11]: 16% | growth at 10 µM [12]: 73.1% | growth at 10 µM [13]: 34.8% | growth at 10 µM [14]: -3.51% | GI50 [15]: 0.343 µM | TGI [15]: 41.5 µM | CC50 [15]: > 100 µM | GI50 [16]: 4.66 µM | TGI [16]: 31.5 µM | CC50 [16]: > 100 µM | GI50 [17]: 0.0183 µM | TGI [17]: 0.521 µM | CC50 [17]: 19.7 µM | GI50 [18]: 2.56 µM | TGI [18]: 30.8 µM | CC50 [18]: > 100 µM | GI50 [19]: 0.275 µM | TGI [19]: 8.66 µM | CC50 [19]: > 100 µM | GI50 [20]: 6.33 µM | TGI [20]: 41.9 µM | CC50 [20]: > 100 µM | GI50 [21]: 0.0837 µM | LC50 (50% lethal concentration) [21]: 37.9 µM | TGI [21]: 1.49 µM

CCCc1n(Cc2ccc3ccccc3n2)cc[n+]1Cc1ccc2ccccc2n1.[Cl-]
growth at 10 µM [1]: 51.7% | growth at 10 µM [2]: 58.1% | growth at 10 µM [3]: 62.8% | GI50 [4]: 2.56 µM | pIC50 [4]: 5.30 | TGI [4]: 11.7 µM | CC50 [4]: 39.8 µM | pIC50 [5]: 6.00 | pIC50 [6]: 5.15 | GI50 [7]: 6.78 µM | pIC50 [7]: 5.00 | LC50 [7]: > 100 µM | TGI [7]: > 100 µM | solubility [8]: > 80 mM | growth at 10 µM [9]: 16% | growth at 10 µM [10]: 38% | growth at 10 µM [11]: 13% | growth at 10 µM [12]: 72.1% | growth at 10 µM [13]: 34.2% | growth at 10 µM [14]: 22.8% | GI50 [15]: 12.5 µM | TGI [15]: > 100 µM | CC50 [15]: > 100 µM | GI50 [16]: 4.28 µM | TGI [16]: 19.4 µM | CC50 [16]: 62.6 µM | GI50 [17]: 0.399 µM | TGI [17]: 3.23 µM | CC50 [17]: 23.2 µM | GI50 [18]: 3.4 µM | TGI [18]: 34.8 µM | CC50 [18]: > 100 µM | GI50 [19]: 0.865 µM | TGI [19]: 15 µM | CC50 [19]: > 100 µM | GI50 [20]: 4.68 µM | TGI [20]: 41.9 µM | CC50 [20]: > 100 µM | GI50 [21]: 0.601 µM | LC50 (50% lethal concentration) [21]: 27.1 µM | TGI [21]: 4.3 µM

Source: ChEMBL document CHEMBL3872259, “Synthesis, characterization, and in vitro SAR evaluation of N,N'-bis(arylmethyl)-C2-alkyl substituted imidazolium salts” (Bioorg Med Chem Lett, 2017)
